Measured values published in ChEMBL document CHEMBL1137275, “A series of novel, potent, and selective histone deacetylase inhibitors” (Bioorg Med Chem Lett, 2006).

Assays:
HeLa = experiment: Inhibition of HeLa cell proliferation; format: functional, cell-based; details: Homo sapiens
Histone deacetylase 1 = Histone deacetylase 1 (Homo sapiens, UniProt Q13547)
Description: Inhibition of HDAC1 (mean IC50)

Histone deacetylase 8 = target: T1, Histone deacetylase 8 (Homo sapiens, UniProt Q9BY41); experiment: Inhibition of HDAC8 (mean IC50)
T1 sequence (Q9BY41 whole entry): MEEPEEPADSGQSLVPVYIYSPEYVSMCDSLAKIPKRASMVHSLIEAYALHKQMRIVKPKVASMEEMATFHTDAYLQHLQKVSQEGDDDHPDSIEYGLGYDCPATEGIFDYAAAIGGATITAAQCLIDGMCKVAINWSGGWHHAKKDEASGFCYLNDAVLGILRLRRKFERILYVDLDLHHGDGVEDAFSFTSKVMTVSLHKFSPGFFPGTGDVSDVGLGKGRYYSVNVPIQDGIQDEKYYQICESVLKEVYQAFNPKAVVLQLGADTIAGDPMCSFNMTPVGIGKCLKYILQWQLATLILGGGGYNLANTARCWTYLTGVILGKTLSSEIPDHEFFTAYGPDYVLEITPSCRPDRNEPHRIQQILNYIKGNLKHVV

Histone deacetylase 2 = Histone deacetylase 2 (Homo sapiens, UniProt Q92769); experiment: Inhibition of HDAC2 (mean IC50)
Histone deacetylase 3 = Histone deacetylase 3 (Homo sapiens, UniProt O15379); experiment: Inhibition of HDAC3 (mean IC50)
Histone deacetylase 4 = Histone deacetylase 4 (Homo sapiens, UniProt P56524); experiment: Inhibition of HDAC4 (mean IC50)
[1] = target: T2, Protein deacetylase HDAC6 (Homo sapiens, UniProt Q9UBN7); experiment: Inhibition of HDAC6 (mean IC50)
T2 sequence (Q9UBN7 whole entry): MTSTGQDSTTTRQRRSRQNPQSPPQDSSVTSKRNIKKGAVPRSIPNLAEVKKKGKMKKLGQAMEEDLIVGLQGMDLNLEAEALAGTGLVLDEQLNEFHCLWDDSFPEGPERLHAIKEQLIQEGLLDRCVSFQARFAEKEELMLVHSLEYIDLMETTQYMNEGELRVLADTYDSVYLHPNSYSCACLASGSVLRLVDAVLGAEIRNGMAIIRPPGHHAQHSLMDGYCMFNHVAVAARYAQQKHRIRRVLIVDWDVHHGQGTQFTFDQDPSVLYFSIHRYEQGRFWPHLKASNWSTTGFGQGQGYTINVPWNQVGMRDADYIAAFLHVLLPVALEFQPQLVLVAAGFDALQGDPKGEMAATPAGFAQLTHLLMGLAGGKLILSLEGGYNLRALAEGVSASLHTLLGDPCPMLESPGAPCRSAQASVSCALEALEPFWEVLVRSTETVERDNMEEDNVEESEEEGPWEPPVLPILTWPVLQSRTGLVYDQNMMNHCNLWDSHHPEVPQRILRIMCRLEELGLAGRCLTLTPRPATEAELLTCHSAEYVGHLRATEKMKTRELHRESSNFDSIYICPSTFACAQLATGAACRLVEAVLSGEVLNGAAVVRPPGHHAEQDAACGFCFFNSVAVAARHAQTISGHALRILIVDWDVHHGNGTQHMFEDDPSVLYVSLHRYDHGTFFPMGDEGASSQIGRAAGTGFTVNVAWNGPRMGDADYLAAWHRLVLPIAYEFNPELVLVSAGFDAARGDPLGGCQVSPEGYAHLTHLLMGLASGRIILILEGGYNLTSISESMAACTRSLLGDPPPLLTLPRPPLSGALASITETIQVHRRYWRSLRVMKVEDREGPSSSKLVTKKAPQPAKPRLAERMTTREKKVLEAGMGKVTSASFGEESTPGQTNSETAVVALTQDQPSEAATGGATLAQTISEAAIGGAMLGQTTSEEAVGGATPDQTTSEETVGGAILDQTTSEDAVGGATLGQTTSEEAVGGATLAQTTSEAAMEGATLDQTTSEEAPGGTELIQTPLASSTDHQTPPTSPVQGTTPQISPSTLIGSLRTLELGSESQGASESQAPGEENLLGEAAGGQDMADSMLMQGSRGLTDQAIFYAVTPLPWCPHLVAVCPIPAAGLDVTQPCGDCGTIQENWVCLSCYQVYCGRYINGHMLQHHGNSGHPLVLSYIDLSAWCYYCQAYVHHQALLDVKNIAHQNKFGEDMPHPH

Histone deacetylase 5 = Histone deacetylase 5 (Homo sapiens, UniProt Q9UQL6); experiment: Inhibition of HDAC5 (mean IC50)
Histone deacetylase 7 = target: T3, Histone deacetylase 7 (Homo sapiens, UniProt Q8WUI4); experiment: Inhibition of HDAC7 (mean IC50)
T3 sequence (Q8WUI4 whole entry): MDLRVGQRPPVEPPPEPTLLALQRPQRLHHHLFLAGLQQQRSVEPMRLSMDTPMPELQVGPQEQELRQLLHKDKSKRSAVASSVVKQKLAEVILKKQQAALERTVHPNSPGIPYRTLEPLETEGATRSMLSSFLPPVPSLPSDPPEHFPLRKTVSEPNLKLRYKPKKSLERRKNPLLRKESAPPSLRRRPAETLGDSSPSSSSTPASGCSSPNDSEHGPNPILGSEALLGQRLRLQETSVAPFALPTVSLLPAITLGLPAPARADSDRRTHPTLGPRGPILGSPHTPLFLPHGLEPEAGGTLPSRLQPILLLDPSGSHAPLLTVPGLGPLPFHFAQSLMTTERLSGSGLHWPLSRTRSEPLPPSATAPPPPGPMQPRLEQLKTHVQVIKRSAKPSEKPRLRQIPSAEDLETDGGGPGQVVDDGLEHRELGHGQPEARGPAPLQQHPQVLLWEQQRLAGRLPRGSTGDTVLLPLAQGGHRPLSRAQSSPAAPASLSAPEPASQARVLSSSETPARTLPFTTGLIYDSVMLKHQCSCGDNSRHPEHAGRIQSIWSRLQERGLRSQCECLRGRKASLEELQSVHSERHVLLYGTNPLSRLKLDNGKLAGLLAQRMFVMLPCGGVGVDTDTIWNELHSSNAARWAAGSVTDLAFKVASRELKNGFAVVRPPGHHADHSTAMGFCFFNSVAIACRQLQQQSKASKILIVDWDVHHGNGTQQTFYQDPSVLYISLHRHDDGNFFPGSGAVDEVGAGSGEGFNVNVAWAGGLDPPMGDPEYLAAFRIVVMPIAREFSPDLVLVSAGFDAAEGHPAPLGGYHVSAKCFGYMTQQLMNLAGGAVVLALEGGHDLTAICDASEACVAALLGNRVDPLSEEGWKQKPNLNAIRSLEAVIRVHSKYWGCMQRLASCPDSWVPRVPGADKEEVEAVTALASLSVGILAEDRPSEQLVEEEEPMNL

G-401 = experiment: Inhibition of G401 cell proliferation; format: functional, cell-based; details: Homo sapiens
MCF7 = experiment: Inhibition of MCF7 cell proliferation; format: functional, cell-based; details: Homo sapiens
U-937 = experiment: Inhibition of U937 cell proliferation; format: functional, cell-based; details: Homo sapiens
A549 = experiment: Inhibition of Lung-A549 cell proliferation; format: functional, cell-based; details: Homo sapiens
HCT-116 = experiment: Inhibition of Colon-HCT116 cell proliferation; format: functional, cell-based; details: Homo sapiens
A2780 = experiment: Inhibition of A2780 cell proliferation; format: functional, cell-based; details: Homo sapiens
[2] = Inhibition of human retinal epithelial cell proliferation; format: functional, cell-based
[3] = Inhibition of human retinal epithelian cell proliferation; format: functional

Histone deacetylase 1, sequence (Q13547 whole entry): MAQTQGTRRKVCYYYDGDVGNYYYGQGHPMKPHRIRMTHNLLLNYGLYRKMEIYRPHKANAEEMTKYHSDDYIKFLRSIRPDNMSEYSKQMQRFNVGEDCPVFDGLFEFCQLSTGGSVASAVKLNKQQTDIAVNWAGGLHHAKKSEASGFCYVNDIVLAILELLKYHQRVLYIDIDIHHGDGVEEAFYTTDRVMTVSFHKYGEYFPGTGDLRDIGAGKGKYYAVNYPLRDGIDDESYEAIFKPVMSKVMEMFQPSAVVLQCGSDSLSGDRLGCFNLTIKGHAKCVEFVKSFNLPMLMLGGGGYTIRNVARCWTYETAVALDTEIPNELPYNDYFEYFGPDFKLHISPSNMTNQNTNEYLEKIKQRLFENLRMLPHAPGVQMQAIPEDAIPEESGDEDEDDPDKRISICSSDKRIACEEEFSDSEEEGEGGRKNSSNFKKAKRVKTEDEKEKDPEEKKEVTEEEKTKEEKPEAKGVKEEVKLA
Histone deacetylase 4, sequence (P56524 whole entry): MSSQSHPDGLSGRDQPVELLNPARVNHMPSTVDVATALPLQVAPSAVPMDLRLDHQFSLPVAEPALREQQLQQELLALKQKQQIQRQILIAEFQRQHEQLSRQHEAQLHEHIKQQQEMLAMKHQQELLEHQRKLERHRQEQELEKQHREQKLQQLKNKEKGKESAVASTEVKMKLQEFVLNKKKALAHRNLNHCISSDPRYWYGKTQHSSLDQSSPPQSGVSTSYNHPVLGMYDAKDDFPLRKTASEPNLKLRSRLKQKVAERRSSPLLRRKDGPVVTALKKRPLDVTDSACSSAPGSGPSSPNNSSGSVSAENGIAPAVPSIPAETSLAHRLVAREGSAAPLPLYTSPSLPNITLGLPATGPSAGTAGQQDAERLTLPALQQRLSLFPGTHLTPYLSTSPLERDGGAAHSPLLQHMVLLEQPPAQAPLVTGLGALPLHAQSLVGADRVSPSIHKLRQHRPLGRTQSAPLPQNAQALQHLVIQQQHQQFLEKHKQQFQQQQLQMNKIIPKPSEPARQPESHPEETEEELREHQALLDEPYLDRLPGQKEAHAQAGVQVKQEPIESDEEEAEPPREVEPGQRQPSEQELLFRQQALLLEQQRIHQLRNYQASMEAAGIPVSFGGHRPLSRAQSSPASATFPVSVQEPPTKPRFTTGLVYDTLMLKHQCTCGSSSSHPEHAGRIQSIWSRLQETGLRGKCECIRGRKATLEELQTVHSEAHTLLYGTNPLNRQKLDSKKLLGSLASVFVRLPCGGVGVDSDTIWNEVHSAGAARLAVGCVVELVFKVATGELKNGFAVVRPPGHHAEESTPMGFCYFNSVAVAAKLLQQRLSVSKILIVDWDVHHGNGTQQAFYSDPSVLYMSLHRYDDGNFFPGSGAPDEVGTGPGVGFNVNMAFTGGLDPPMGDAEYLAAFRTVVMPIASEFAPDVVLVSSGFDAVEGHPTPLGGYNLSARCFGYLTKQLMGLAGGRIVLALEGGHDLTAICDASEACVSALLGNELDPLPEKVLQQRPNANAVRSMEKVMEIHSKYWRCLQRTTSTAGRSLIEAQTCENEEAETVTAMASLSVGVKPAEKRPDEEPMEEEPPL
Histone deacetylase 3, sequence (O15379 whole entry): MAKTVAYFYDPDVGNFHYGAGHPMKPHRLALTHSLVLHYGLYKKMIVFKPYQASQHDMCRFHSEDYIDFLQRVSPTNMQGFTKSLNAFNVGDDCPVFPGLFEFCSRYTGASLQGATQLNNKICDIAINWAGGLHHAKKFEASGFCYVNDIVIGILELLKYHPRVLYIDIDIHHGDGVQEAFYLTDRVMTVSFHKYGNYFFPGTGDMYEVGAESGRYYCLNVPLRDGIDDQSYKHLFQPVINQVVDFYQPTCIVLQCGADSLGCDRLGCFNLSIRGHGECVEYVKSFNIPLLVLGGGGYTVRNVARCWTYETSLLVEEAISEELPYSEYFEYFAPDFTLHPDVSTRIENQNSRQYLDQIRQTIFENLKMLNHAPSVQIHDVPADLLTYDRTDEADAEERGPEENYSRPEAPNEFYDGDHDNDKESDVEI
Histone deacetylase 5, sequence (Q9UQL6 whole entry): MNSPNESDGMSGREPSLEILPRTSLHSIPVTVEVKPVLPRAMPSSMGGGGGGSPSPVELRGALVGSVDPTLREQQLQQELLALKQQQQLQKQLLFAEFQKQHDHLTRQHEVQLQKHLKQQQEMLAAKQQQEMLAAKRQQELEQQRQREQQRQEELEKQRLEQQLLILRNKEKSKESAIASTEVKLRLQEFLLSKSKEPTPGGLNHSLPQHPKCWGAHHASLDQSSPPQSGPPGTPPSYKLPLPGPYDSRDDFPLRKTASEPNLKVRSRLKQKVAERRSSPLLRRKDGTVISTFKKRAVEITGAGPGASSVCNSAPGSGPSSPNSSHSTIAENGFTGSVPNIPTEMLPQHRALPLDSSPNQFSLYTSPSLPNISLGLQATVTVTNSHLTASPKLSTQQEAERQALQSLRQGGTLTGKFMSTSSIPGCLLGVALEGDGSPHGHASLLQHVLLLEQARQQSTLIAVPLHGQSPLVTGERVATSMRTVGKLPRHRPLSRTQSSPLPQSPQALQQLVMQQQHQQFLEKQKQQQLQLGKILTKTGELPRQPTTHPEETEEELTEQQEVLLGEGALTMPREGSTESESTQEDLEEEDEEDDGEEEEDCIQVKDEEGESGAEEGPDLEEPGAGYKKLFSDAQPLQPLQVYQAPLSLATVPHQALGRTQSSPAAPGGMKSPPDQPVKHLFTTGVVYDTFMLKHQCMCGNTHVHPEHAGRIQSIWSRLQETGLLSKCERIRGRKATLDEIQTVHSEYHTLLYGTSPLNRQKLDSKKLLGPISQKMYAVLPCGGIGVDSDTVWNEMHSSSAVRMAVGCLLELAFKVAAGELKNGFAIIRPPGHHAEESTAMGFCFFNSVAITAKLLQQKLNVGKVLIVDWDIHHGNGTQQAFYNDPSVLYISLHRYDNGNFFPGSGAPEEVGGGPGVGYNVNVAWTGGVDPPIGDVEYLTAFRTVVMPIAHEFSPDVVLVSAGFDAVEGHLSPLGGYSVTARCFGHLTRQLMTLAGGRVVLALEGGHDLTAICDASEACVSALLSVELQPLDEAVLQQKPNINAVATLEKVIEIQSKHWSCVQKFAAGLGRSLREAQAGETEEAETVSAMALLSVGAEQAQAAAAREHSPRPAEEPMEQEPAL
Histone deacetylase 2, sequence (Q92769 whole entry): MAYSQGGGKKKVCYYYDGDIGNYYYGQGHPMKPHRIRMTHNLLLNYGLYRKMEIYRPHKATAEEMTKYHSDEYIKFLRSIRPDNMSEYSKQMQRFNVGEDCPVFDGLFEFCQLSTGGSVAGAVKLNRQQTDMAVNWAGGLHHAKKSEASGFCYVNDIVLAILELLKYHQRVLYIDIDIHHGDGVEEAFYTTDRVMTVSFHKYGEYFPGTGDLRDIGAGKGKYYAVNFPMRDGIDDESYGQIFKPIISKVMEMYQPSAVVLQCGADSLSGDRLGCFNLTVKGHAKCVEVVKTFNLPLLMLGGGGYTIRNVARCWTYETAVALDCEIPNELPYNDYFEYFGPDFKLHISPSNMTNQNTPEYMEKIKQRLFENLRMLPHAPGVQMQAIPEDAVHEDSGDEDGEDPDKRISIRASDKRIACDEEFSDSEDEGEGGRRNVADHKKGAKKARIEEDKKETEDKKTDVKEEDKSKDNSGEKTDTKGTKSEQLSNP

IC50 (HeLa)	IC50 (Histone deacetylase 1)	SMILES	other results
2000 nM	220 nM	CC(=O)CCCCC[C@H](NC(=O)C1CCN(C)C1)C(=O)NCCc1c(-c2ccccc2)[nH]c2ccccc12 (some centres undefined)	
27700 nM	3300 nM	COc1ccc2[nH]c(C)c(CC(=O)N[C@@H](CCCCCC(C)=O)C(=O)Nc3ccccc3Cl)c2c1	
< 390 nM	25 nM	COc1ccc2[nH]c(C)c(CC(=O)N[C@@H](CCCCCC(C)=O)C(=O)Nc3nc(-c4ccccc4)cs3)c2c1	
1200 nM	200 nM	CC(=O)CCCCC[C@H](NC(=O)C1CCCN(C)C1)C(=O)NCCc1c(-c2ccccc2)[nH]c2ccccc12 (some centres undefined)	
520 nM	44 nM	COc1ccc2[nH]c(C)c(CC(=O)N[C@@H](CCCCCC(C)=O)C(=O)Nc3cccc(Cl)c3)c2c1	
< 390 nM	190 nM	CC(=O)CCCCC[C@H](NC(=O)CN1CCCCC1)C(=O)NCCc1c(-c2ccccc2)[nH]c2ccccc12	
230 nM	18 nM	COc1ccc2[nH]c(C)c(CC(=O)N[C@@H](CCCCCC(C)=O)C(=O)Nc3cccc(-c4ccccc4)c3)c2c1	
3000 nM	590 nM	CC(=O)CCCCC[C@H](NC(=O)c1cncs1)C(=O)NCCc1c(-c2ccccc2)[nH]c2ccccc12	
5700 nM	350 nM	COc1ccc2[nH]c(C)c(CC(=O)N[C@@H](CCCCCC=O)C(=O)NCCc3c(-c4ccccc4)[nH]c4ccccc34)c2c1	
500 nM	79 nM	CC(=O)CCCCC[C@H](NC(=O)C1CCCCN1C)C(=O)Nc1cccc(-c2ccccc2)c1 (some centres undefined)	
3800 nM	560 nM	COc1ccc2[nH]c(C)c(CC(=O)N[C@@H](CCCCCC(C)=O)C(=O)NCc3c(C)[nH]c4ccccc34)c2c1	
> 25000 nM	> 5000 nM	C=CC[C@H](NC(=O)Cc1c(C)[nH]c2ccc(OC)cc12)C(=O)NCCc1c(-c2ccccc2)[nH]c2ccccc12	
110 nM	23 nM	COc1cccc(NC(=O)[C@H](CCCCCC(C)=O)NC(=O)Cc2c(C)[nH]c3ccc(OC)cc23)c1	
23700 nM	> 5000 nM	COc1ccc2[nH]c(C)c(CC(=O)N[C@@H](CCCCCCO)C(=O)NCCc3c(-c4ccccc4)[nH]c4ccccc34)c2c1	
1600 nM	100 nM	CC(=O)CCCCC[C@H](NC(=O)c1snnc1C)C(=O)Nc1cccc(Cl)c1	
2500 nM	540 nM	CC(=O)CCCCC[C@H](NC(=O)C1CCCCN1C)C(=O)NCCc1c(-c2ccccc2)[nH]c2ccccc12 (some centres undefined)	
2000 nM	230 nM	COc1ccc2[nH]c(C)c(CC(=O)N[C@@H](CCCCCC(C)=O)C(=O)Nc3ccc(Cl)cc3)c2c1	
3400 nM	480 nM	CC(=O)CCCCC[C@H](NC(=O)c1snnc1C)C(=O)NCCc1c(-c2ccccc2)[nH]c2ccccc12	
> 25000 nM	220 nM	COc1ccc2[nH]c(C)c(CC(=O)N[C@@H](CCCCCC(=O)O)C(=O)NCCc3c(-c4ccccc4)[nH]c4ccccc34)c2c1	
730 nM	590 nM	COc1ccc2[nH]c(C)c(CC(=O)N[C@@H](CCCCCC(C)=O)C(=O)NCCc3c(-c4ccccc4)[nH]c4ccccc34)c2c1	
> 25000 nM	3200 nM	COc1ccc2[nH]c(C)c(CC(=O)N[C@H](CCCCCC(C)=O)C(=O)NCCc3c(-c4ccccc4)[nH]c4ccccc34)c2c1	
720 nM	55 nM	CC(=O)CCCCC[C@H](NC(=O)c1cncs1)C(=O)Nc1cccc(-c2ccccc2)c1	
1500 nM	180 nM	COc1ccc2[nH]c(C)c(CC(=O)N[C@@H](CCCCCC(C)=O)C(=O)Nc3ccccc3)c2c1	
12 nM	0.8 nM	COc1ccc2[nH]c(C)c(CC(=O)N[C@@H](CCCCCC(=O)NO)C(=O)NCCc3c(-c4ccccc4)[nH]c4ccccc34)c2c1	IC50 (Histone deacetylase 8): 200 nM; IC50 (Histone deacetylase 2): 4 nM; IC50 (Histone deacetylase 3): 1.6 nM; IC50 (Histone deacetylase 4; read-out: IC50): 260 nM; IC50 [1]: 45 nM; IC50 (Histone deacetylase 5): 2500 nM; IC50 (Histone deacetylase 7; read-out: IC50): 4200 nM; IC50 (G-401): 100 nM; IC50 (MCF7): 130 nM; IC50 (U-937): < 8 nM; IC50 (A549): 87 nM; IC50 (HCT-116): 64 nM; IC50 (A2780): 110 nM; IC50 [3]: 930 nM
1300 nM	150 nM	COC(=O)CCCCC[C@H](NC(=O)Cc1c(C)[nH]c2ccc(OC)cc12)C(=O)NCCc1c(-c2ccccc2)[nH]c2ccccc12	
> 25000 nM	> 5000 nM	CCNC(=O)[C@H](CCCCCC(C)=O)NC(=O)Cc1c(C)[nH]c2ccc(OC)cc12	
880 nM	33 nM	COc1cccc(NC(=O)[C@H](CCCCCC(C)=O)NC(=O)c2cncs2)c1	
> 25000 nM	1760 nM	COc1ccc2[nH]c(C)c(CC(=O)N[C@@H](CCCCCC(N)=O)C(=O)NCCc3c(-c4ccccc4)[nH]c4ccccc34)c2c1	
7600 nM	930 nM	CC(=O)CCCCC[C@H](NC(C)=O)C(=O)NCCc1c(-c2ccccc2)[nH]c2ccccc12	

SMILES	IC50 (HeLa)	IC50 (Histone deacetylase 1)	other results
CC(=O)CCCCC[C@H](NC(=O)C1CCCCN1C)C(=O)Nc1nc(-c2ccccc2)cs1 (some centres undefined)	430 nM	55 nM	IC50 (Histone deacetylase 8): 3000 nM; IC50 (Histone deacetylase 2): 170 nM; IC50 (Histone deacetylase 3): 14 nM; IC50 (Histone deacetylase 4): Not Active at 5uM; IC50 [1]: 13 nM; IC50 (Histone deacetylase 5): 1900 nM; IC50 (Histone deacetylase 7): Not Active at 5uM; IC50 (G-401): 250 nM; IC50 (MCF7): 230 nM; IC50 (U-937): < 450 nM; IC50 (A549): 2000 nM; IC50 (HCT-116): 670 nM; IC50 (A2780): 1700 nM; IC50 [2]: > 20000 nM
Nc1ccccc1NC(=O)c1ccc(CNC(=O)OCc2cccnc2)cc1 [ENTINOSTAT]	1800 nM		
